Data as given in patent US10328030B2, “Compositions and methods of use for treatment of mammalian diseases” (priority 2004, dated 2019).

Columns and labels:
NCI-H23 lung cells = experiment: In vitro human tumor screen, 3H-thymidine assay; assay type: cell-based; details: positive control, doxorubicin 1 μM
[1] = Metabolic clearance and tolerability of iron dextran, intravenous infusion; design: species or system cynomolgus monkeys (Macaca fascicularis); details: cynomolgus monkey, in vivo
Description: Experiments on metabolic clearance rates done on cynomolgus monkeys (species Macaca fascicularis) have shown the safe use of large dosages of elemental iron derived from iron dextran. […] The administered iron dextran remained in the monkey plasma for at least 120 hours, at milligram levels. […] (See, U.S. application Ser. No. 10/888,576 incorporated herein in its entirety.) The monkey model clears the iron dextran from the system much more very rapidly, as compared to humans, because of a higher metabolic rate. Therefore, a longer plasma residence time is anticipated in humans, as has been shown in research, such as, for example, Henderson & Hillman, (1969).
Experiments on metabolic clearance rates done on cynomolgus monkeys (species Macaca fascicularis) have shown the safe use of large dosages of elemental iron derived from iron dextran. […] The monkey model clears the iron dextran from the system much more very rapidly, as compared to humans, because of a higher metabolic rate. Therefore, a longer plasma residence time is anticipated in humans, as has been shown in research, such as, for example, Henderson & Hillman, (1969).

[2] = in vivo; cited from earlier work

Compound: COc1cccc2c1C(=O)c1c(O)c3c(c(O)c1C2=O)C[C@@](O)(C(=O)CO)C[C@@H]3O[C@H]1C[C@H](N)[C@H](O)[C@H](C)O1 [doxorubicin]
- inhibitory effect (in words) (NCI-H23 lung cells): high inhibitory effect

Compound: iron dextran [Base Compound]
- side effects (in words) [1]: few negative side effects, i.e. abdominal swelling
- time remaining in plasma ([1]; iv): at least 120 hours
- clearance rate [2]: 10 to 20 mg/h
- time to clearance [2]: ≤ 3 days
